Here are results for 5 compounds from ChEMBL document CHEMBL1137602, “Synthesis of aromatic compounds containing a 1,1-dialkyl-2-trifluoromethyl group, a bioisostere of the tert-alkyl moiety” (Bioorg Med Chem Lett, 2007).

A short description of data set [1]: Intrinsic clearance in human liver microsomes. It is filed as ADME, Microsome.
Data set [2] concerns the target Transient receptor potential cation channel subfamily V member 1 (Homo sapiens, UniProt Q8NER1). The experiment in a line: Antagonist activity at human TRPV1 receptor. It is filed as functional.
The test system of the next data set is Liver microsomes. The experiment in a line: Metabolic stability in human liver microsomes. It is filed as ADME, Microsome.

Chain of Transient receptor potential cation channel subfamily V member 1 (Q8NER1 whole entry): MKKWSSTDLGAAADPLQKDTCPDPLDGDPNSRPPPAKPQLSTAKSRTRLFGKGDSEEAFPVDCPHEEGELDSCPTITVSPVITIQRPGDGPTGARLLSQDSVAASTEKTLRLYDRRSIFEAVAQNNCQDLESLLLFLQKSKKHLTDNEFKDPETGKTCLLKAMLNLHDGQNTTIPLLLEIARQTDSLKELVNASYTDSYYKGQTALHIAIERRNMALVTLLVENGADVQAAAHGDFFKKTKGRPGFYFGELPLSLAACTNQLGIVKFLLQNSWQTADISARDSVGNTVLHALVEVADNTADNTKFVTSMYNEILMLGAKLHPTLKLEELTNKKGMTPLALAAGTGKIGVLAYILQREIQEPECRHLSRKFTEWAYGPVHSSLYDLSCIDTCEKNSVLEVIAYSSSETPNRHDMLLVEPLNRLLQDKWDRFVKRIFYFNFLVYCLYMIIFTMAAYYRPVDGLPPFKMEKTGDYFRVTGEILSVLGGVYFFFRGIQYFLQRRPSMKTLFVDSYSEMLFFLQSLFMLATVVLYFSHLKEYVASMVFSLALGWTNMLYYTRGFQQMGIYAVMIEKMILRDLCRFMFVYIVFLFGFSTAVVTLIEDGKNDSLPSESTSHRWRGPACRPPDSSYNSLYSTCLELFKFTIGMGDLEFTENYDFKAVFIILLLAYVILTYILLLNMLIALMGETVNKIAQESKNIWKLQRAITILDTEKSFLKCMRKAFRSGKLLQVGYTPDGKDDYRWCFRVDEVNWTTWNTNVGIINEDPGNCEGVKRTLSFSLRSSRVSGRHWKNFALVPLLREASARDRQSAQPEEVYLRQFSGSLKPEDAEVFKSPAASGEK

`CC(C)(C)c1ccc(NC(=O)c2ccc(-c3ncccc3Cl)cc2)cc1` returned a CLint scaled in data set [1] of 168 mL/min/kg. This compound returned an IC50 in data set [2] of 37 nM.
As to `O=C(Nc1ccc(C(F)(F)F)cc1)c1ccc(-c2ncccc2Cl)cc1`, in data set [1], the CLint scaled is < 10.5 mL/min/kg. Inhibition in data set [2] was half-maximal at 200 nM (IC50).
In turn, `CC(C)(c1ccc(NC(=O)c2ccc(-c3ncccc3Cl)cc2)cc1)C(F)(F)F` registered an intrinsic clearance (CLint scaled) in data set [1] of 46 mL/min/kg. This compound also registered an IC50 in data set [2] of 42 nM. Moreover, the outcome with Liver microsomes was Active.
`COc1ccc(C(C)(C)C(F)(F)F)cc1CN[C@H]1CCCN[C@H]1c1ccccc1` yielded a microsomal CLint in data set [1] of 44.7 µL/min/mg. The result in the data set on Liver microsomes was Active.
With `COc1ccc(C(C)(C)C)cc1CN[C@H]1CCCN[C@H]1c1ccccc1`, the microsomal CLint in data set [1] was 87.9 µL/min/mg.

By CLint scaled is commonly meant a measure of how fast metabolising enzymes remove a compound, apart from limits set by blood flow. A word on the IC50: it is the concentration at which inhibition is half-maximal. A word on the microsomal CLint: it is the rate of metabolic loss divided by the concentration. Read a low microsomal CLint as greater metabolic stability.
